Experimental data reported in PubChem BioAssay AID1845209 (Molecular Pharmacology Branch, DTP, NCI, 2023).

Tested on: NCI-H211 tumor spheroids, viability percent test/control
Test: Anticancer human tumor NCI-H211 cell line growth inhibition;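 further: spheroids exposed to agents for seven days before readout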
Settings: spheroids with HUVEC and MSC; for IC50: curve of first compound; for viability, T/C: stronger effect = lower value
How it was run: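 Single agents and combinations were tested on spheroids built from tumor cells plus HUVEC and hMSC, at half-log dilutions starting at or near clinical Cmax, else 10 microM; final DMSO 0.25% (v/v).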

[1] = second compound 30 pM, first compound 0.0316 µM
[2] = second compound 30 pM, first compound 0.1 µM
[3] = second compound 30 pM, first compound 0.316 µM
[4] = second compound 30 pM, first compound 1 µM
[5] = second compound 30 pM, first compound 3.16 µM
[6] = second compound 30 pM, first compound 10 µM
[7] = second compound 94.9 pM, first compound 0.0316 µM
[8] = second compound 94.9 pM, first compound 0.1 µM
[9] = second compound 94.9 pM, first compound 0.316 µM
[10] = second compound 94.9 pM, first compound 1 µM
[11] = second compound 94.9 pM, first compound 3.16 µM
[12] = second compound 94.9 pM, first compound 10 µM
[13] = second compound 0.0003 µM, first compound 0.0316 µM
[14] = second compound 0.0003 µM, first compound 0.1 µM
[15] = second compound 0.0003 µM, first compound 0.316 µM
[16] = second compound 0.0003 µM, first compound 1 µM
[17] = second compound 0.0003 µM, first compound 3.16 µM
[18] = second compound 0.0003 µM, first compound 10 µM
[19] = second compound 0.000949 µM, first compound 0.0316 µM
[20] = second compound 0.000949 µM, first compound 0.1 µM
[21] = second compound 0.000949 µM, first compound 0.316 µM
[22] = second compound 0.000949 µM, first compound 1 µM
[23] = second compound 0.000949 µM, first compound 3.16 µM
[24] = second compound 0.000949 µM, first compound 10 µM
[25] = second compound 0.003 µM, first compound 0.0316 µM
[26] = second compound 0.003 µM, first compound 0.1 µM
[27] = second compound 0.003 µM, first compound 0.316 µM
[28] = second compound 0.003 µM, first compound 1 µM
[29] = second compound 0.003 µM, first compound 3.16 µM
[30] = second compound 0.003 µM, first compound 10 µM

## CC(C)n1c(=O)n(C)c2cnc3cc(F)c(-c4ccc(OCCCN5CCCCC5)nc4)cc3c21 + COc1cc2c(cc1O)CCNC21CSC2c3c(OC(C)=O)c(C)c4c(c3C(COC1=O)N1C(O)C3Cc5cc(C)c(OC)c(O)c5C(C21)N3C)OCO4
Second compound 30 pM
  IC50: < 31.6 nM
Second compound 94.9 pM
  IC50: < 31.6 nM
Second compound 0.0003 µM
  IC50: < 31.6 nM
Second compound 0.000949 µM
  IC50: < 31.6 nM
Second compound 0.003 µM
  IC50: < 31.6 nM
[1]
  viability, T/C: 27%
[2]
  viability, T/C: 15.3%
[3]
  viability, T/C: 15.5%
[4]
  viability, T/C: 12.7%
[5]
  viability, T/C: 9.25%
[6]
  viability, T/C: 0.77%
[7]
  viability, T/C: 0.99%
[8]
  viability, T/C: 0.88%
[9]
  viability, T/C: 1.06%
[10]
  viability, T/C: 0.96%
[11]
  viability, T/C: 0.8%
[12]
  viability, T/C: 0.42%
[13]
  viability, T/C: 0.68%
[14]
  viability, T/C: 0.74%
[15]
  viability, T/C: 0.77%
[16]
  viability, T/C: 1.03%
[17]
  viability, T/C: 0.82%
[18]
  viability, T/C: 0.31%
[19]
  viability, T/C: 0.69%
[20]
  viability, T/C: 0.69%
[21]
  viability, T/C: 0.71%
[22]
  viability, T/C: 0.72%
[23]
  viability, T/C: 0.7%
[24]
  viability, T/C: 0.5%
[25]
  viability, T/C: 0.12%
[26]
  viability, T/C: 0.17%
[27]
  viability, T/C: 0.11%
[28]
  viability, T/C: 0.1%
[29]
  viability, T/C: 0.12%
[30]
  viability, T/C: 0.16%

## CC1COCCN1c1cc(-c2ccnn2C)c2ccnc(-c3ccn[nH]3)c2n1 (stereo not given) + COc1cc2c(cc1O)CCNC21CSC2c3c(OC(C)=O)c(C)c4c(c3C(COC1=O)N1C(O)C3Cc5cc(C)c(OC)c(O)c5C(C21)N3C)OCO4
Second compound 30 pM
  IC50: < 31.6 nM
Second compound 94.9 pM
  IC50: < 31.6 nM
Second compound 0.0003 µM
  IC50: < 31.6 nM
Second compound 0.000949 µM
  IC50: < 31.6 nM
Second compound 0.003 µM
  IC50: < 31.6 nM
[1]
  viability, T/C: 0.76%
[2]
  viability, T/C: 0.64%
[3]
  viability, T/C: 0.52%
[4]
  viability, T/C: 0.4%
[5]
  viability, T/C: 0.43%
[6]
  viability, T/C: 0.49%
[7]
  viability, T/C: 0.75%
[8]
  viability, T/C: 0.74%
[9]
  viability, T/C: 0.62%
[10]
  viability, T/C: 0.38%
[11]
  viability, T/C: 0.35%
[12]
  viability, T/C: 0.42%
[13]
  viability, T/C: 0.75%
[14]
  viability, T/C: 0.89%
[15]
  viability, T/C: 0.57%
[16]
  viability, T/C: 0.78%
[17]
  viability, T/C: 0.3%
[18]
  viability, T/C: 0.36%
[19]
  viability, T/C: 0.61%
[20]
  viability, T/C: 0.63%
[21]
  viability, T/C: 0.48%
[22]
  viability, T/C: 0.81%
[23]
  viability, T/C: 0.36%
[24]
  viability, T/C: 0.71%
[25]
  viability, T/C: 0.1%
[26]
  viability, T/C: 0.1%
[27]
  viability, T/C: 0.31%
[28]
  viability, T/C: 0.1%
[29]
  viability, T/C: 0.46%
[30]
  viability, T/C: 0.54%

## COc1ccc([C@@H](O)c2cc(-c3ncnc4cc(N5CCOCC5)ccc34)c(F)cc2Cl)nn1 + COc1cc2c(cc1O)CCNC21CSC2c3c(OC(C)=O)c(C)c4c(c3C(COC1=O)N1C(O)C3Cc5cc(C)c(OC)c(O)c5C(C21)N3C)OCO4
Second compound 30 pM
  IC50: 583 nM
Second compound 94.9 pM
  IC50: < 31.6 nM
Second compound 0.0003 µM
  IC50: < 31.6 nM
Second compound 0.000949 µM
  IC50: < 31.6 nM
Second compound 0.003 µM
  IC50: < 31.6 nM
[1]
  viability, T/C: 104%
[2]
  viability, T/C: 91.7%
[3]
  viability, T/C: 71.9%
[4]
  viability, T/C: 33%
[5]
  viability, T/C: 1.14%
[6]
  viability, T/C: 0.29%
[7]
  viability, T/C: 20.6%
[8]
  viability, T/C: 12.6%
[9]
  viability, T/C: 4.86%
[10]
  viability, T/C: 0.5%
[11]
  viability, T/C: 0.35%
[12]
  viability, T/C: 0.2%
[13]
  viability, T/C: 0.7%
[14]
  viability, T/C: 0.77%
[15]
  viability, T/C: 0.73%
[16]
  viability, T/C: 0.58%
[17]
  viability, T/C: 0.36%
[18]
  viability, T/C: 0.11%
[19]
  viability, T/C: 0.63%
[20]
  viability, T/C: 0.64%
[21]
  viability, T/C: 0.51%
[22]
  viability, T/C: 0.16%
[23]
  viability, T/C: 0.02%
[24]
  viability, T/C: 0.11%
[25]
  viability, T/C: 0.1%
[26]
  viability, T/C: 0.11%
[27]
  viability, T/C: 0.1%
[28]
  viability, T/C: 0.1%
[29]
  viability, T/C: 0.1%
[30]
  viability, T/C: 0.16%

## O=C(c1cc(Cc2n[nH]c(=O)c3ccccc23)ccc1F)N1CCN(C(=O)C2CC2)CC1 + Cn1nnc2c(C(N)=O)ncn2c1=O
Second compound 1 µM
  IC50: < 94.9 nM
Second compound 3.16 µM
  IC50: < 94.9 nM
Second compound 10 µM
  IC50: < 94.9 nM
Second compound 31.6 µM
  IC50: < 94.9 nM
Second compound 100 µM
  IC50: < 94.9 nM
Second compound 1 µM, first compound 0.0949 µM
  viability, T/C: 38.8%
Second compound 1 µM, first compound 0.3 µM
  viability, T/C: 24.3%
Second compound 1 µM, first compound 0.949 µM
  viability, T/C: 9.48%
Second compound 1 µM, first compound 3 µM
  viability, T/C: 11.2%
Second compound 1 µM, first compound 9.49 µM
  viability, T/C: 7.85%
Second compound 1 µM, first compound 30 µM
  viability, T/C: 6.43%
Second compound 3.16 µM, first compound 0.0949 µM
  viability, T/C: 39.2%
Second compound 3.16 µM, first compound 0.3 µM
  viability, T/C: 16.4%
Second compound 3.16 µM, first compound 0.949 µM
  viability, T/C: 12.2%
Second compound 3.16 µM, first compound 3 µM
  viability, T/C: 8.6%
Second compound 3.16 µM, first compound 9.49 µM
  viability, T/C: 8.67%
Second compound 3.16 µM, first compound 30 µM
  viability, T/C: 6.42%
Second compound 10 µM, first compound 0.0949 µM
  viability, T/C: 20.4%
Second compound 10 µM, first compound 0.3 µM
  viability, T/C: 13.6%
Second compound 10 µM, first compound 0.949 µM
  viability, T/C: 8.65%
Second compound 10 µM, first compound 3 µM
  viability, T/C: 8.76%
Second compound 10 µM, first compound 9.49 µM
  viability, T/C: 8.42%
Second compound 10 µM, first compound 30 µM
  viability, T/C: 5.87%
Second compound 31.6 µM, first compound 0.0949 µM
  viability, T/C: 9.76%
Second compound 31.6 µM, first compound 0.3 µM
  viability, T/C: 10.7%
Second compound 31.6 µM, first compound 0.949 µM
  viability, T/C: 8.79%
Second compound 31.6 µM, first compound 3 µM
  viability, T/C: 8.73%
Second compound 31.6 µM, first compound 9.49 µM
  viability, T/C: 8.23%
Second compound 31.6 µM, first compound 30 µM
  viability, T/C: 6.62%
Second compound 100 µM, first compound 0.0949 µM
  viability, T/C: 10.7%
Second compound 100 µM, first compound 0.3 µM
  viability, T/C: 9.41%
Second compound 100 µM, first compound 0.949 µM
  viability, T/C: 10.1%
Second compound 100 µM, first compound 3 µM
  viability, T/C: 9.99%
Second compound 100 µM, first compound 9.49 µM
  viability, T/C: 8.37%
Second compound 100 µM, first compound 30 µM
  viability, T/C: 6.94%
